In publication PMC6700280, “Identification of Novel 3-Hydroxy-pyran-4-One Derivatives as Potent HIV-1 Integrase Inhibitors Using in silico Structure-Based Combinatorial Library Design Approach” (Frontiers in Chemistry, 2019):
Like-named read-outs stand apart in the source and are kept apart here.

Experiments:
HIV-1 [1] = test: MT-4/MTT anti-HIV assay (HIV-induced cytopathic effect); type: cell-based; conditions: Human immunodeficiency virus 1, MT4; MT-4 cells; read-out: HIV-1 activity inhibition EC50
Method: The inhibitory effect of antiviral drugs on the HIV-induced cytopathic effect (CPE) in human lymphocyte MT-4 cell culture was determined by the MT-4/MTT-assay (Pauwels et al., [1988]). This assay is based on the reduction of the yellow colored 3-(4,5-dimethylthiazol-2-yl)-2,5-diphenyltetrazolium bromide (MTT) by mitochondrial dehydrogenase of metabolically active cells to a blue formazan derivative, which can be measured spectrophotometrically. The 50% cell culture infective dose of the HIV strains was determined by titration of the virus stock using MT-4 cells. For the drug susceptibility assays, MT-4 cells were infected with 100–300 50% cell culture infective doses of the HIV strains in the presence of 5-fold serial dilutions of the antiviral drugs. The concentration of the compound achieving 50% protection against the CPE of HIV, which is defined as the 50% effective concentration (EC50), was determined. In parallel, the concentration of the compound destroying 50% of the MT-4 cells, which is defined as the 50% cytotoxic concentration (CC50), was determined as well.

[2] = MT-4/MTT cytotoxicity assay; type: cell-based, human; conditions: human, MT-4 cells; read-out: Cellular toxicity CC50
Method: (§1) The inhibitory effect of antiviral drugs on the HIV-induced cytopathic effect (CPE) in human lymphocyte MT-4 cell culture was determined by the MT-4/MTT-assay (Pauwels et al., [1988]). […] The 50% cell culture infective dose of the HIV strains was determined by titration of the virus stock using MT-4 cells. For the drug susceptibility assays, MT-4 cells were infected with 100–300 50% cell culture infective doses of the HIV strains in the presence of 5-fold serial dilutions of the antiviral drugs. […] In parallel, the concentration of the compound destroying 50% of the MT-4 cells, which is defined as the 50% cytotoxic concentration (CC50), was determined as well.

MT-4 cells [3] = test: MT-4/MTT cytotoxicity assay; type: cell-based, human
Method: as §1

HIV-1 IN [4] = biological target: T1, HIV-1 IN (Human immunodeficiency virus type 1 group M subtype B, UniProt P04585); test: Overall HIV-1 IN integration assay (ELISA); type: biochemical
[5] = biological target: T2, HIV-1 IN strand transfer activity (Human immunodeficiency virus type 1 group M subtype B, UniProt P04585); test: HIV-1 IN strand transfer assay (ELISA, pre-cleaved oligonucleotide substrate)
Method: The enzymatic integration reactions were carried out as previously described with minor modifications (Debyser et al., [2001]; Christ et al., [2011]). To determine the susceptibility of the HIV-1 IN enzyme to different compounds, an enzyme-linked immunosorbent assay (ELISA) adapted from Hwang et al. was used (Hwang et al., [2000]). The overall integration assay uses an oligonucleotide substrate for which one oligonucleotide (5′-[sequence]-3′) is labeled with biotin at the 3′ end and the other oligonucleotide (5′-[sequence]-3′) is labeled with digoxigenin at the 5′ end. For the strand transfer assay, a pre-cleaved oligonucleotide substrate (the second oligonucleotide lacks GT [underlined] at the 3′ end) was used. The IN enzyme was diluted in 750 mM NaCl, 10 mM Tris (pH: 7.6), 10% glycerol, and 1 mM β-mercaptoethanol. To perform the reaction, 4 μL of diluted IN (corresponding to a concentration of 1.6 μM) and 4 μL of annealed oligonucleotides (7 nM) were added in a final reaction volume of 40 μL containing 10 mM MgCl2, 5 mM dithiothreitol, 20 mM HEPES (pH 7.5), 5% polyethylene glycol, and 15% dimethyl sulfoxide. As such, the final concentration of IN in this assay was 160 nM. The reaction was carried out for 1 h at 37°C. Reaction products were denatured with 30 mM NaOH and detected by ELISA on avidin-coated plates.

HIV-1 IN [6] = biological target: T1, HIV-1 IN; design: method as in Sirous et al., 2019; conditions: read-out: Overall HIV-1 IN activity inhibition IC50; previously reported lead; ref Sirous et al., 2019; cited from earlier work
HIV-1 [7] = tested on: HIV-1; design: method as in Sirous et al., 2019; conditions: MT-4 cells; previously reported lead; ref Sirous et al., 2019; read-out: HIV-1 activity inhibition EC50; cited from earlier work
MT-4 cells [8] = tested on: MT-4 cells; design: method as in Sirous et al., 2019; conditions: previously reported lead, cited from earlier work; for CC50: ref Sirous et al., 2019, read-out: Cellular toxicity CC50; for TI (therapeutic index, CC50/EC50 ratio): ref Sirous et al., 2019
[9] = biological target: T2, HIV-1 IN strand transfer activity; design: method as in Sirous et al., 2019; conditions: read-out: HIV-1 IN strand transfer activity inhibition IC50; previously reported lead; ref Sirous et al., 2019; cited from earlier work

Row | SMILES | EC50 (HIV-1 [1]) | CC50 [2] | TI (therapeutic index, CC50/EC50 ratio) (MT-4 cells [3]) | IC50 (HIV-1 IN [4]) | IC50 [5] | IC50 (HIV-1 IN [6]) | EC50 (HIV-1 [7]) | CC50 (MT-4 cells [8]) | TI (therapeutic index, CC50/EC50 ratio) (MT-4 cells [8]) | IC50 [9] | improvement in anti-IN potency compared to HPb (HIV-1 IN [4]; vs HPb IC50 = 0.37 μM)
1 | Cc1cc(=O)c(O)c(C(=O)NCc2cccc(-n3cccc3)c2)o1 [HPCAR-142, N-(3-(1H-Pyrrol-1-yl)benzyl)-3-hydroxy-6-methyl-4-oxo-4H-pyran-2-carboxamide] | 4210 ± 520 nM | > 85400 nM | >20.3 | 1970 ± 1060 nM | 17490 ± 130 nM |  |  |  |  |  | 
2 | Cc1cc(=O)c(O)c(C(=O)NCc2ccc(F)cc2)o1 [HPb] |  |  |  |  |  | 370 ± 170 nM | 1720 ± 990 nM | > 250000 nM | >145 | 1405 ± 10 nM | 
3 | Cc1cc(=O)c(O)c(C(=O)NCc2ccc(Cl)cc2)o1 [HPd] |  |  |  |  |  | 700 ± 310 nM | 1950 ± 930 nM | 196000 ± 4400 nM | 100.3 | 1540 ± 200 nM | 
4 | Cc1nc(-c2cccc(CNC(=O)c3oc(C)cc(=O)c3O)c2)c[nH]1 [HPCAR-89, 3-Hydroxy-6-methyl-N-(3-(2-methyl-1H-imidazol-4-yl)benzyl)-4-oxo-4H-pyran-2 carboxamide] | 2340 ± 460 nM | > 125000 nM | >53.4 | 270 ± 100 nM | 4000 ± 340 nM |  |  |  |  |  | 
5 | Cc1nnc(C(=O)NC(C)(C)c2nc(C(=O)NCc3ccc(F)cc3)c(O)c(=O)n2C)o1 [RLT, Raltegravir, reference compound] | 13 ± 8 nM | > 18300 nM |  |  |  |  |  |  |  |  | 
6 | Cc1cc(=O)c(O)c(C(=O)NCc2cc(F)cc(-c3ccccn3)c2)o1 [HPCAR-28, N-(3-Fluoro-5-(pyridin-2-yl)benzyl)-3-hydroxy-6-methyl-4-oxo-4H-pyran-2-carboxamide] | 230 ± 180 nM | > 250000 nM | >1,087 | 65 ± 10 nM | 3370 ± 380 nM |  |  |  |  |  | 6 fold
